pIC50: −log10 of the molar value. Where two headings read alike, the source gives them in different places. Starred links: 1 amine or outer side, 2 acyl side, 3 side chain; linkers in the order of their positions; H or OH if unused. Positions of bridges follow the written chain, without caps; N, C: chain ends. Non-standard residues stand in square brackets, D forms with d. Residues, ends and D or L forms follow the SMILES beside them. ξ: configuration not given here. *: point of attachment. X2 = O=C([C@H](CCCN(C1=NCCN1)C1=NCCN1)N[*:1])[*:2]; Propanoyl(3,3-Ph2) = O=C(CC(c1ccccc1)c1ccccc1)*; Phe(2,4-Cl2) = N[C@@H](Cc1ccc(Cl)cc1Cl)C(=O)O; ξTrp(6-F) = NC(Cc1c[nH]c2cc(F)ccc12)C(=O)O; Decanoyl(3,6,9-trioxa) = COCCOCCOCC(=O)*; Phe(2-Cl) = N[C@@H](Cc1ccccc1Cl)C(=O)O; Phe(4-F) = N[C@@H](Cc1ccc(F)cc1)C(=O)O; 1Nal = N[C@@H](Cc1cccc2ccccc12)C(=O)O; Phe(2-F) = N[C@@H](Cc1ccccc1F)C(=O)O; Bta = N[C@@H](Cc1csc2ccccc12)C(=O)O; Hydrocinnamoyl = O=C(CCc1ccccc1)*; Hyp = O=C(O)[C@@H]1C[C@@H](O)CN1; NMeF = CN[C@@H](Cc1ccccc1)C(=O)O; d(hLeu) = CC(C)CC[C@@H](N)C(=O)O; hArg = N=C(N)NCCCC[C@H](N)C(=O)O; Tic = O=C(O)[C@@H]1Cc2ccccc2CN1; dCha = N[C@H](CC1CCCCC1)C(=O)O; Nle = CCCC[C@H](N)C(=O)O; Orn = NCCC[C@H](N)C(=O)O; Aze = O=C(O)[C@@H]1CCN1; Fluoroacetyl = O=C(CF)*; Propionyl = CCC(=O)*; βAla = NCCC(=O)O
Biological target: T1, human C5aR(CD88) (Homo sapiens, UniProt P21730)
T1 construct: expressed in transfected cells; host or cells: rat basophilic leukemia cells (RBL)
T1 sequence (P21730 1-350): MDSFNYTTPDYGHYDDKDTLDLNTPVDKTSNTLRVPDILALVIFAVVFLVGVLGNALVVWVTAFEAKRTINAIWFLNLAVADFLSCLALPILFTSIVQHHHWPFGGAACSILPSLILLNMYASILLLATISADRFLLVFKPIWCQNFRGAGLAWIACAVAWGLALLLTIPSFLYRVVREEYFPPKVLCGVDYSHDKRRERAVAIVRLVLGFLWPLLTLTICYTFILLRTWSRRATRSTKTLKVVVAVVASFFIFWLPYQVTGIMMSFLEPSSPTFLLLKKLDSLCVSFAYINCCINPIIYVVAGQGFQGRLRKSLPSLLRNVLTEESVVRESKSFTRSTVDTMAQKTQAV
Assay: Determination of the IC50 value in an enzyme release assay (functional assay, antagonistic activity)
Format: cell-based
Conditions: for pIC50: antagonistic activity, IC50 group in enzyme release assay, RBL cells expressing human C5aR(CD88); for inhibitory activity (in words): functional assay of example 11, noteworthy = IC50 less than 200 nM

| SMILES | pIC50 (read-out: activity (group)) | also measured |
| --- | --- | --- |
| CC(=O)N[C@@H](Cc1ccccc1)C(=O)N[C@@H](CCCN)C(=O)N1CCC[C@H]1C(=O)N[C@H](CCC(C)C)C(=O)NC(Cc1c[nH]c2cc(F)ccc12)C(=O)N[C@@H](Cc1ccccc1)C(N)=O (stereo partly drawn) [Compound 269, Ac-Phe-Orn-Pro-hle-6FW-Phe-NH2] (Ac-F[Orn]P[d(hLeu)][ξTrp(6-F)]F-NH2) | 6.70 to 7.30 | – |
| CCCC[C@@H]1NC(=O)[C@H](Cc2ccc(F)cc2)NC(=O)[C@@H](CCC(C)C)NC(=O)[C@@H]2CCCN2C(=O)[C@@H](NC(=O)[C@H](Cc2ccccc2)NC(=O)CCN)CCCNC1=O [Compound 343, H-Bal-Phe-[Orn-Pro-hle-Pff-Nle]] (H-[βAla]F[Orn]P[d(hLeu)][Phe(4-F)][Nle]; lactam 3-C) | 6.70 to 7.30 | – |
| CCCC[C@H](NC(=O)[C@H](Cc1ccccc1)NC(C)=O)C(=O)N1CCC[C@H]1C(=O)N[C@H](CC1CCCCC1)C(=O)N[C@@H](Cc1csc2ccccc12)C(=O)N[C@@H](Cc1ccccc1)C(N)=O [Compound 120, Ac-Phe-Nle-Pro-cha-Bta-Phe-NH2] (Ac-F[Nle]P[dCha][Bta]F-NH2) | 6.70 to 7.30 | – |
| CC(=O)N[C@@H](Cc1ccccc1)C(=O)N[C@H]1CCCNC(=O)[C@H](Cc2ccccc2)NC(=O)[C@H](Cc2c[nH]c3ccccc23)NC(=O)[C@@H](CC2CCCCC2)NC(=O)[C@H](CO)NC1=O [Ac-Phe-[Orn-Ser-cha-Trp-Phe]] (Ac-F[Orn]S[dCha]WF; lactam 2-C) | – | inhibitory activity (in words): noteworthy inhibitory activity |
| CC(C)CC[C@H]1NC(=O)[C@@H]2CCCN2C(=O)[C@@H](NC(=O)[C@@H](N)Cc2ccccc2)CCCNC(=O)[C@H](Cc2ccccc2)NC(=O)[C@H](Cc2ccccc2Cl)NC1=O [Compound 378, H-Phe-[Orn-Pro-hle-Ocf-Phe]] (H-F[Orn]P[d(hLeu)][Phe(2-Cl)]F; lactam 2-C) | 6.70 to 7.30 | – |
| CC(=O)N[C@@H](Cc1ccccc1)C(=O)N[C@@H](CCCN)C(=O)N1Cc2ccccc2C[C@H]1C(=O)N[C@H](CC1CCCCC1)C(=O)N[C@@H](Cc1c[nH]c2ccccc12)C(=O)N[C@@H](Cc1ccccc1)C(N)=O [Compound 107, Ac-Phe-Orn-Tic-cha-Trp-Phe-NH2] (Ac-F[Orn][Tic][dCha]WF-NH2) | 6.70 to 7.30 | – |
| COCCOCCOCC(=O)O[C@@H]1C[C@H]2C(=O)N[C@H](CC3CCCCC3)C(=O)N[C@@H](Cc3c[nH]c4ccccc34)C(=O)N[C@@H](Cc3ccccc3)C(=O)NCCC[C@H](NC(=O)[C@H](Cc3ccccc3)NC(C)=O)C(=O)N2C1 [Ac-Phe-[Orn-Hyp(COCH2OCH2CH2OCH2CH2OCH3)-cha-Trp-Phe]] (Ac-F[Orn][Hyp](Decanoyl(3,6,9-trioxa))[dCha]WF; lactam 2-C) | – | inhibitory activity (in words): noteworthy inhibitory activity |
| CCCC[C@@H]1NC(=O)[C@H](Cc2c[nH]c3ccccc23)NC(=O)[C@@H](CC2CCCCC2)NC(=O)[C@@H]2C[C@@H](O)CN2C(=O)[C@@H](NC(=O)[C@H](Cc2ccccc2)NC(C)=O)CCCNC1=O [Compound 144, Ac-Phe-[Orn-Hyp-cha-Trp-Nle]] (Ac-F[Orn][Hyp][dCha]W[Nle]; lactam 2-C) | 7.70 to 8.00 | – |
| CC(=O)N[C@@H](Cc1ccccc1)C(=O)N[C@@H](CCCN)C(=O)N1CCC[C@H]1C(=O)N[C@H](CCC(C)C)C(=O)N[C@@H](Cc1csc2ccccc12)C(=O)N[C@@H](Cc1ccc(Cl)cc1Cl)C(N)=O [Compound 277, Ac-Phe-Orn-Pro-hle-Bta-Egy-NH2] (Ac-F[Orn]P[d(hLeu)][Bta][Phe(2,4-Cl2)]-NH2) | 6.70 to 7.30 | – |
| NCCC[C@H](NC(=O)CC(c1ccccc1)c1ccccc1)C(=O)N1CCC[C@H]1C(=O)N[C@H](CC1CCCCC1)C(=O)N[C@@H](Cc1c[nH]c2ccccc12)C(=O)N[C@@H](Cc1ccccc1)C(N)=O [Compound 70, Ph2-CH—CH2—CO-Orn-Pro-cha-Trp-Phe-NH2] ({Propanoyl(3,3-Ph2)}-[Orn]P[dCha]WF-NH2) | 5.70 to 6.70 | – |
| CC(=O)N[C@@H](Cc1ccccc1)C(=O)N[C@@H](CCCN)C(=O)N1C[C@H](O)C[C@H]1C(=O)N[C@H](CCC(C)C)C(=O)N[C@@H](Cc1csc2ccccc12)C(=O)N[C@@H](Cc1ccccc1)C(N)=O [Compound 244, Ac-Phe-Orn-Hyp-hle-Bta-Phe-NH2] (Ac-F[Orn][Hyp][d(hLeu)][Bta]F-NH2) | 6.70 to 7.30 | – |
| CC(=O)N[C@@H](Cc1ccccc1)C(=O)N[C@@H](CCCCNC(=N)N)C(=O)N1CCC[C@H]1C(=O)N[C@H](CC1CCCCC1)C(=O)N[C@@H](Cc1csc2ccccc12)C(=O)N[C@@H](Cc1ccccc1)C(N)=O [Compound 121, Ac-Phe-Har-Pro-cha-Bta-Phe-NH2] (Ac-F[hArg]P[dCha][Bta]F-NH2) | 7.30 to 7.70 | – |
| CC(=O)N(C)[C@@H](Cc1ccccc1)C(=O)N[C@@H](CCCN)C(=O)N1CCC[C@H]1C(=O)N[C@H](CC1CCCCC1)C(=O)N[C@@H](Cc1csc2ccccc12)C(=O)N[C@@H](Cc1ccccc1)C(N)=O [Compound 165, Ac-NMF-Orn-Pro-cha-Bta-Phe-NH2] (Ac-[NMeF][Orn]P[dCha][Bta]F-NH2) | 6.70 to 7.30 | – |
| CC(=O)N[C@@H](Cc1ccccc1F)C(=O)N[C@@H](CCCN)C(=O)N1CCC[C@H]1C(=O)N[C@H](CC1CCCCC1)C(=O)N[C@@H](Cc1csc2ccccc12)C(=O)N[C@@H](Cc1ccccc1)C(N)=O [Compound 166, Ac-Off-Orn-Pro-cha-Bta-Phe-NH2] (Ac-[Phe(2-F)][Orn]P[dCha][Bta]F-NH2) | 7.30 to 7.70 | – |
| NCCC[C@H](NC(=O)[C@H](Cc1ccccc1)NC(=O)CF)C(=O)N1CCC[C@H]1C(=O)N[C@H](CC1CCCCC1)C(=O)N[C@@H](Cc1csc2ccccc12)C(=O)N[C@@H](Cc1ccccc1)C(N)=O [Compound 142, FH2C—CO-Phe-Orn-Pro-cha-Bta-Phe-NH2] (Fluoroacetyl-F[Orn]P[dCha][Bta]F-NH2) | – | pIC50 (activity (group)): 7.30 to 7.70 |
| CC(=O)N[C@@H](Cc1ccccc1)C(=O)N[C@@H](CCCN)C(=O)N1C[C@H](O)C[C@H]1C(=O)N[C@H](CC1CCCCC1)C(=O)N[C@@H](Cc1c[nH]c2ccccc12)C(=O)N[C@@H](Cc1ccccc1)C(N)=O [Compound 93, Ac-Phe-Orn-Hyp-cha-Trp-Phe-NH2] (Ac-F[Orn][Hyp][dCha]WF-NH2) | 5.70 to 6.70 | – |
| CCC(=O)N[C@@H](Cc1ccccc1)C(=O)N[C@@H](CCCN)C(=O)N1CCC[C@H]1C(=O)N[C@H](CC1CCCCC1)C(=O)N[C@@H](Cc1csc2ccccc12)C(=O)N[C@@H](Cc1ccccc1)C(N)=O [Compound 316, CH3CH2CO-Phe-Orn-Pro-cha-Bta-Phe-NH2] (Propionyl-F[Orn]P[dCha][Bta]F-NH2) | 7.30 to 7.70 | – |
| CC(=O)N[C@@H](Cc1ccccc1)C(=O)N[C@@H](CCCN)C(=O)N1CCC[C@H]1C(=O)N[C@H](CCC(C)C)C(=O)N[C@@H](Cc1cccc2ccccc12)C(=O)N[C@@H](Cc1ccccc1)C(N)=O [Compound 268, Ac-Phe-Orn-Pro-hle-1Ni-Phe-NH2] (Ac-F[Orn]P[d(hLeu)][1Nal]F-NH2) | 7.30 to 7.70 | – |
| CC(=O)N[C@@H](Cc1ccccc1)C(=O)N[C@@H](CCCN(C1=NCCN1)C1=NCCN1)C(=O)N1CC[C@H]1C(=O)N[C@H](CC1CCCCC1)C(=O)N[C@@H](Cc1csc2ccccc12)C(=O)N[C@@H](Cc1ccccc1)C(N)=O [Compound 223, Ac-Phe-Fcp-Aze-cha-Bta-Phe-NH2] (Ac-F[X2][Aze][dCha][Bta]F-NH2) | 7.30 to 7.70 | – |
| NCCC[C@H](NC(=O)CCc1ccccc1)C(=O)N1CCC[C@H]1C(=O)N[C@H](CC1CCCCC1)C(=O)N[C@@H](Cc1csc2ccccc12)C(=O)N[C@@H](Cc1ccccc1)C(N)=O [Compound 324, Faz-Orn-Pro-cha-Bta-Phe-NH2] (Hydrocinnamoyl-[Orn]P[dCha][Bta]F-NH2) | 6.70 to 7.30 | – |

— patent publication US20080161232A1, “C5a Receptor Antagonist” (JERINI AG, priority 2005, published 2008)
